Test results: US20090011424A1, “Cancer-suppressing agents” (Tokyo Medical and Dental University, priority 2005, published 2009)

System: SMS-KAN cell
Assay: messenger RNA expression analysis, AceGene Human oligo chip 30 K, NR1I2-expressing clone B1 vs control clone
Assay type: cell-based
Settings: 2nd: Cy5-B1/Cy3-control
Text: The NR1I2 gene has been known as a transcriptional factor. Thus, it is possible to know what type of gene expression is controlled by obtaining messenger RNAs from cells causing NR1I2 protein expression and cells not causing such expression, and comparing the expression levels thereof with each other. As described above, the NR1I2 gene protein may have an effect of inhibiting cancer. […] Therefore, pCMV-Tag3 vector not containing a foreign gene as a control was introduced into SMS-KAN cell, and pCMV-Tag3-VP-NR1I2 containing the NR1I2 gene as a test sample was introduced into SMS-KAN cell. As a result, a control cell clone and a cell clone B1 permanently causing NR1I2 protein expression were obtained. Thereafter, analysis of messenger RNA expression was carried out using these two types of cells and an AceGene Human oligo chip 30 K (DNA Chip Research Inc.), with which the expression levels of 30,000 human genes can be observed (Inoue. J., et al. Am J. Pathol. 165. 71. 2004). A complementary strand DNA (complimentary DNA) was prepared, into which aminoallyl-dUTP (Ambion Inc.) was incorporated using an Oligo (dT) 12-18 primer. Then, the aminoallyl group was labeled with reactive Cy3 (cyanin 3) and Cy5 (cyanin 5) (Amersham Biosciences) via a coupling reaction. Hybridization was performed twice (1st: Cy3-B1/Cy5-control; 2nd: Cy5-B1/Cy3-control). Signals were measured using a GenePix 4000B (Axon Instruments) so as to be analyzed by GenePix Pro 4.1 software (Axon Instruments). Tables 3 and 4 are lists of genes, where in the cases of SMS-KAN cells into which the NR1I2 gene had been introduced in the two experiments, the expression levels were 1.5-fold or greater than the expression level in the case of a control cell clone.

Q: Which “ADAMTS2 expression level Ratio 2nd” value does the source give for “NR1I2 gene: human-derived gene, nuclear receptor subfamily 1, group I, member 2 (pregnane X receptor, PXR), nucleotide sequence SEQ ID NO: 1” here?
A: Its value is 1.60.

Q: And the “ADNP expression level Ratio 2nd” value?
A: Its value is 1.63.

Q: What about the “AP3S2 expression level Ratio 2nd” value of the same substance?
A: Its value is 2.55.

Q: And the “APEG1 expression level Ratio 2nd” value?
A: The value was 1.91.

Q: And the “APOA1 expression level Ratio 2nd” value?
A: The value was 2.00.

Q: And the “APP expression level Ratio 2nd” value?
A: The value was 2.05.

Q: What about the “ARHC expression level Ratio 2nd” value of the same substance?
A: Its value is 1.52.

Q: And the “ARL2 expression level Ratio 2nd” value?
A: The value was 1.53.

Q: What about the “ASCL2 expression level Ratio 2nd” value of the same substance?
A: The value was 2.46.

Q: And the “ASH1 expression level Ratio 2nd” value?
A: The value was 1.83.

Q: And the “B4GALT5 expression level Ratio 2nd” value?
A: Its value is 1.56.

Q: What about the “BARD1 expression level Ratio 2nd” value of the same substance?
A: The value was 1.93.

Q: And the “BCAT2 expression level Ratio 2nd” value?
A: Its value is 1.63.

Q: And the “BLP2 expression level Ratio 2nd” value?
A: The value was 1.53.

Q: What about the “BMP15 expression level Ratio 2nd” value of the same substance?
A: Its value is 1.52.

Q: And the “C6orf25 expression level Ratio 2nd” value?
A: Its value is 1.76.

Q: And the “CCNA1 expression level Ratio 2nd” value?
A: The value was 1.92.

Q: What about the “CDC7L1 expression level Ratio 2nd” value of the same substance?
A: Its value is 1.86.

Q: And the “CISH expression level Ratio 2nd” value?
A: The value was 2.17.

Q: What about the “CORO2A expression level Ratio 2nd” value of the same substance?
A: Its value is 1.73.

Q: And the “Cab45 expression level Ratio 2nd” value?
A: Its value is 1.86.

Q: And the “DKFZp434G05 expression level Ratio 2nd” value?
A: Its value is 1.58.

Q: What about the “DKKL1 expression level Ratio 2nd” value of the same substance?
A: The value was 1.56.

Q: What about the “DNA12 expression level Ratio 2nd” value of the same substance?
A: Its value is 1.54.

Q: What about the “EPHX1 expression level Ratio 2nd” value of the same substance?
A: The value was 2.25.

Q: And the “ERCC1 expression level Ratio 2nd” value?
A: Its value is 1.84.

Q: What about the “ETR101 expression level Ratio 2nd” value of the same substance?
A: The value was 1.67.

Q: What about the “EXT1 expression level Ratio 2nd” value of the same substance?
A: The value was 1.89.

Q: What about the “FLJ10737 expression level Ratio 2nd” value of the same substance?
A: Its value is 1.54.

Q: What about the “FLJ12389 expression level Ratio 2nd” value of the same substance?
A: The value was 2.19.

Q: And the “FLJ13197 expression level Ratio 2nd” value?
A: Its value is 2.99.

Q: What about the “FLJ13479 expression level Ratio 2nd” value of the same substance?
A: The value was 1.94.

Q: And the “FLJ20288 expression level Ratio 2nd” value?
A: Its value is 1.83.

Q: And the “FLJ20555 expression level Ratio 2nd” value?
A: Its value is 1.53.

Q: And the “FLJ23462 expression level Ratio 2nd” value?
A: Its value is 1.67.

Q: And the “FOFR3 expression level Ratio 2nd” value?
A: Its value is 1.59.

Q: And the “GLI2 expression level Ratio 2nd” value?
A: Its value is 2.72.

Q: What about the “GNE expression level Ratio 2nd” value of the same substance?
A: Its value is 1.90.

Q: And the “GSTT2 expression level Ratio 2nd” value?
A: Its value is 3.28.

Q: And the “GUCY1A3 expression level Ratio 2nd” value?
A: The value was 1.63.

Q: What about the “HHEX expression level Ratio 2nd” value of the same substance?
A: The value was 1.57.

Q: And the “HNT expression level Ratio 2nd” value?
A: Its value is 1.57.

Q: What about the “HPCL2 expression level Ratio 2nd” value of the same substance?
A: The value was 1.74.

Q: And the “ICAM5 expression level Ratio 2nd” value?
A: Its value is 1.54.

Q: And the “IFIT4 expression level Ratio 2nd” value?
A: The value was 1.54.

Q: What about the “INSL6 expression level Ratio 2nd” value of the same substance?
A: The value was 1.68.

Q: And the “IRC039700 expression level Ratio 2nd” value?
A: Its value is 2.15.

Q: What about the “KCNJ15 expression level Ratio 2nd” value of the same substance?
A: The value was 1.91.

Q: What about the “KIAA0161 expression level Ratio 2nd” value of the same substance?
A: The value was 1.56.

Q: And the “KIAA0212 expression level Ratio 2nd” value?
A: Its value is 2.04.

Q: And the “LBP-9 expression level Ratio 2nd” value?
A: Its value is 1.95.

Q: And the “LDB1 expression level Ratio 2nd” value?
A: Its value is 1.60.

Q: What about the “LICAM expression level Ratio 2nd” value of the same substance?
A: Its value is 1.89.

Q: What about the “LILRB5 expression level Ratio 2nd” value of the same substance?
A: Its value is 1.76.

Q: And the “LOC51024 expression level Ratio 2nd” value?
A: Its value is 1.69.

Q: What about the “LRP8 expression level Ratio 2nd” value of the same substance?
A: The value was 1.54.

Q: And the “LZLP expression level Ratio 2nd” value?
A: Its value is 1.61.

Q: What about the “MAFG expression level Ratio 2nd” value of the same substance?
A: Its value is 2.55.

Q: What about the “MGC2306 expression level Ratio 2nd” value of the same substance?
A: Its value is 1.58.

Q: What about the “MGC2941 expression level Ratio 2nd” value of the same substance?
A: Its value is 1.93.

Q: What about the “MPP6 expression level Ratio 2nd” value of the same substance?
A: The value was 1.70.

Q: And the “MT-ACT48 expression level Ratio 2nd” value?
A: The value was 1.61.

Q: What about the “OCM expression level Ratio 2nd” value of the same substance?
A: The value was 1.72.

Q: What about the “OMP expression level Ratio 2nd” value of the same substance?
A: Its value is 1.58.

Q: What about the “OPA3 expression level Ratio 2nd” value of the same substance?
A: The value was 2.49.

Q: And the “ORC5L expression level Ratio 2nd” value?
A: Its value is 1.69.

Q: And the “ORM1 expression level Ratio 2nd” value?
A: The value was 1.60.

Q: What about the “PCDHA4 expression level Ratio 2nd” value of the same substance?
A: The value was 1.97.

Q: What about the “PCDHB10 expression level Ratio 2nd” value of the same substance?
A: The value was 1.66.

Q: And the “PDCD8 expression level Ratio 2nd” value?
A: Its value is 2.03.

Q: And the “PFKFB4 expression level Ratio 2nd” value?
A: Its value is 4.97.

Q: What about the “PGAM1 expression level Ratio 2nd” value of the same substance?
A: Its value is 2.16.

Q: What about the “PITPN expression level Ratio 2nd” value of the same substance?
A: The value was 1.75.

Q: And the “PLA2G2A expression level Ratio 2nd” value?
A: The value was 3.05.

Q: And the “PLCE1 expression level Ratio 2nd” value?
A: The value was 2.94.

Q: And the “PLEKHA1 expression level Ratio 2nd” value?
A: Its value is 1.56.

Q: And the “PRO2121 expression level Ratio 2nd” value?
A: Its value is 1.91.

Q: And the “PRO2831 expression level Ratio 2nd” value?
A: The value was 1.53.

Q: What about the “RDH5 expression level Ratio 2nd” value of the same substance?
A: Its value is 1.64.

Q: And the “RP1 expression level Ratio 2nd” value?
A: Its value is 1.56.

Q: What about the “RPL39L expression level Ratio 2nd” value of the same substance?
A: The value was 2.34.

Q: And the “RPS16 expression level Ratio 2nd” value?
A: The value was 1.59.

Q: And the “SC65 expression level Ratio 2nd” value?
A: Its value is 1.58.

Q: And the “SCD expression level Ratio 2nd” value?
A: The value was 1.77.

Q: What about the “SCN2B expression level Ratio 2nd” value of the same substance?
A: Its value is 1.54.

Q: What about the “SLC22A11 expression level Ratio 2nd” value of the same substance?
A: The value was 1.68.

Q: And the “SNAP91 expression level Ratio 2nd” value?
A: The value was 3.43.

Q: And the “STK11 expression level Ratio 2nd” value?
A: The value was 1.64.

Q: What about the “SURF1 expression level Ratio 2nd” value of the same substance?
A: Its value is 1.95.

Q: What about the “TCEA1 expression level Ratio 2nd” value of the same substance?
A: The value was 1.56.

Q: And the “TGM2 expression level Ratio 2nd” value?
A: The value was 1.62.

Q: And the “TIMM10 expression level Ratio 2nd” value?
A: Its value is 1.89.

Q: And the “TLAL1 expression level Ratio 2nd” value?
A: The value was 2.37.

Q: And the “TMPRSS4 expression level Ratio 2nd” value?
A: The value was 1.57.

Q: What about the “TOP3B expression level Ratio 2nd” value of the same substance?
A: Its value is 1.61.

Q: And the “TPARL expression level Ratio 2nd” value?
A: Its value is 1.58.

Q: And the “TRPV4 expression level Ratio 2nd” value?
A: The value was 1.80.

Q: And the “TSPAN-1 expression level Ratio 2nd” value?
A: The value was 1.69.

Q: What about the “UXT expression level Ratio 2nd” value of the same substance?
A: The value was 2.94.

Q: What about the “WHSC2 expression level Ratio 2nd” value of the same substance?
A: Its value is 1.67.
